In brackets after ≈: the same amount, converted by molar mass.
How the values were obtained:
[1] = Thermodynamic solubility of the polymorphic forms in water (shake flask technique, UV); type: physicochemical; settings: pure water, over night at 25° C., triplicate
Method: The thermodynamic solubility of FORM 1, FORM 2, and FORM 3 of 1,6-Bis [3-(3-carboxymethylphenyl)-4-(2-α-D-mannopyranosyloxy)-phenyl] hexane (compound of formula (I)) was determined in water by employing the shake flask technique. The sample was added to pure water in a Safelock-tube (Eppendorf, Germany) under vigorous shaking until a white precipitate was formed. The saturated solution was incubated over night at 25° C. in an Eppendorf Thermomixer operated at 700 RPM. The suspension was cleared by centrifugation at 13.000 RPM at room temperature, and the supernatant was carefully collected. The supernatant was further purified by vacuum-filtration through a Millipore solubility filter plate (Millipore, Molsheim, France).
The UV absorption of the filtrate was measured against pure water using a Spectramax250 (Molecular Devices, Sunnyvale, Calif.) operated with Softmax Pro v. 4.8 software, using the application “Mscreen solubility quantify” in the ADME package. The sample concentration was calculated using a 5-point linear calibration line of the compound of formula (I) in acetonitrile:pure water (1:1 vol:vol). Measurements have been performed in triplicate.

[2] = Thermodynamic solubility of the polymorphic forms in organic solvents (HPLC quantification); type: physicochemical
Method: The thermodynamic solubility of FORM 1, FORM 2, FORM 4, and FORM 6 of 1,6-Bis [3-(3-carboxymethylphenyl)-4-(2-α-D-mannopyranosyloxy)-phenyl] hexane (compound of formula (I)) was determined in several organic solvents by suspending sufficient compound to give a maximum final concentration. Quantification was by reverse phase HPLC with gradient solution with reference to a standard solution of FORM B of the compound of formula (I) at 0.25 mg/ml. The suspensions were equilibrated at 27° C. for 24 hours with shaking. All suspensions were filtered though a glass fibre C filter. The filtrate was then diluted by an appropriate factor in 50:50 ethanol:water apart from isopropyl myristate which was diluted in ethanol to avoid emulsion formation.
Solubilities were calculated using the peak areas determined by the peak found at the same retention time as the principal peak in the standard injection.

[3] = PEG 300, equilibrated at 27° C. for 24 hours with shaking
[4] = Triacetin, equilibrated at 27° C. for 24 hours with shaking
[5] = ethanol, equilibrated at 27° C. for 24 hours with shaking
[6] = equilibrated at 27° C. for 24 hours with shaking

Q: Which solubility ([1]; 25 °C, water, thermodynamic from solid) does the source give for O=C(O)Cc1cccc(-c2cc(CCCCCCc3ccc(O[C@H]4O[C@H](CO)[C@@H](O)[C@H](O)[C@@H]4O)c(-c4cccc(CC(=O)O)c4)c3)ccc2O[C@H]2O[C@H](CO)[C@@H](O)[C@H](O)[C@@H]2O)c1 [FORM 1, 1,6-Bis [3-(3-carboxymethylphenyl)-4-(2-α-D-mannopyranosyloxy)-phenyl] hexane] here?
A: 0.022 mg/mL (≈ 0.0255 mM)

Q: What about the “Solubility ranking among the FORMS in PEG 300 (in words)” value ([2]; PEG 300, compared with other FORMS) of the same compound?
A: highest solubility

Q: What about the “Solubility in PEG 300 (Polyethylene glycol 300)” value [2, 3] of the same compound?
A: 205 mg/mL (≈ 238 mM)

Q: And the “Solubility ranking among the FORMS in Triacetin (in words)” value ([2]; Triacetin, compared with other FORMS)?
A: highest solubility

Q: And the “Solubility in Triacetin (glycerin triacetate)” value [2, 4]?
A: 0.056 mg/mL (≈ 0.0649 mM)

Q: What about the “Solubility in EtOH (Ethanol)” value [2, 5] of the same compound?
A: 4.2 mg/mL (≈ 4.87 mM)

Q: And the “Solubility in IPA (Isopropyl alcohol)” value [2, 6]?
A: 3.9 mg/mL (≈ 4.52 mM)

Q: And the solubility at 24 h ([2]; propylene glycol, 27 °C, organic solvent or mixture, thermodynamic from solid, equilibrated at 27° C. for 24 hours with shaking)?
A: 199 mg/mL (≈ 231 mM)

Q: And the “Solubility ranking among the FORMS in propylene glycol (in words)” value ([2]; propylene glycol, compared with other FORMS)?
A: highest solubility

Q: Which results are given for O=C(O)Cc1cccc(-c2cc(CCCCCCc3ccc(O[C@H]4O[C@H](CO)[C@@H](O)[C@H](O)[C@@H]4O)c(-c4cccc(CC(=O)O)c4)c3)ccc2O[C@H]2O[C@H](CO)[C@@H](O)[C@H](O)[C@@H]2O)c1 [FORM 2, 1,6-Bis [3-(3-carboxymethylphenyl)-4-(2-α-D-mannopyranosyloxy)-phenyl] hexane]?
A: Solubility in water [1]: 0.015 mg/mL (≈ 0.0174 mM); Solubility in PEG 300 (Polyethylene glycol 300) [2, 3]: 102 mg/mL (≈ 118 mM); Solubility in Triacetin (glycerin triacetate) [2, 4]: 0.0083 mg/mL (≈ 0.00962 mM); Solubility in EtOH (Ethanol) [2, 5]: 4.2 mg/mL (≈ 4.87 mM); Solubility in IPA (Isopropyl alcohol) [2, 6]: 0.52 mg/mL (≈ 0.603 mM); Solubility in Propylene Glycol ([2]; propylene glycol, equilibrated at 27° C. for 24 hours with shaking): 104 mg/mL (≈ 121 mM)

Q: With O=C(O)Cc1cccc(-c2cc(CCCCCCc3ccc(O[C@H]4O[C@H](CO)[C@@H](O)[C@H](O)[C@@H]4O)c(-c4cccc(CC(=O)O)c4)c3)ccc2O[C@H]2O[C@H](CO)[C@@H](O)[C@H](O)[C@@H]2O)c1 [FORM 3, 1,6-Bis [3-(3-carboxymethylphenyl)-4-(2-α-D-mannopyranosyloxy)-phenyl] hexane] as the compound, how does the Solubility in water [1] read?
A: 0.014 mg/mL (≈ 0.0162 mM)

Q: Which results are given for O=C(O)Cc1cccc(-c2cc(CCCCCCc3ccc(O[C@H]4O[C@H](CO)[C@@H](O)[C@H](O)[C@@H]4O)c(-c4cccc(CC(=O)O)c4)c3)ccc2O[C@H]2O[C@H](CO)[C@@H](O)[C@H](O)[C@@H]2O)c1 [FORM 4, 1,6-Bis [3-(3-carboxymethylphenyl)-4-(2-α-D-mannopyranosyloxy)-phenyl] hexane]?
A: Solubility in PEG 300 (Polyethylene glycol 300) ([2]; PEG 300, equilibrated at 27° C. for 24 hours with shaking, listed as 4): 159 mg/mL (≈ 184 mM); Solubility in Triacetin (glycerin triacetate) [2, 4]: 0.02 mg/mL (≈ 0.0232 mM); Solubility ranking among the FORMS in ethanol (in words) ([2]; ethanol, compared with FORM 1, 2, 4, 6): highest solubility; Solubility in EtOH (Ethanol) ([2]; ethanol, equilibrated at 27° C. for 24 hours with shaking, listed as 4): 48 mg/mL (≈ 55.6 mM); Solubility in IPA (Isopropyl alcohol) ([2]; equilibrated at 27° C. for 24 hours with shaking, listed as 4): 1.2 mg/mL (≈ 1.39 mM); Solubility in Propylene Glycol ([2]; propylene glycol, equilibrated at 27° C. for 24 hours with shaking, listed as 4): 165 mg/mL (≈ 191 mM)

Q: Which “Solubility ranking among the FORMS in IPA (in words)” value ([2]; IPA, compared with FORM 1, 2, 4, 6) does the source give for O=C(O)Cc1cccc(-c2cc(CCCCCCc3ccc(O[C@H]4O[C@H](CO)[C@@H](O)[C@H](O)[C@@H]4O)c(-c4cccc(CC(=O)O)c4)c3)ccc2O[C@H]2O[C@H](CO)[C@@H](O)[C@H](O)[C@@H]2O)c1 [FORM 6, 1,6-Bis [3-(3-carboxymethylphenyl)-4-(2-α-D-mannopyranosyloxy)-phenyl] hexane] here?
A: highest solubility

Q: And the “Solubility in PEG 300 (Polyethylene glycol 300)” value ([2]; PEG 300, equilibrated at 27° C. for 24 hours with shaking, listed as 6)?
A: 122 mg/mL (≈ 141 mM)

Q: What about the “Solubility in EtOH (Ethanol)” value ([2]; ethanol, equilibrated at 27° C. for 24 hours with shaking, listed as 6) of the same compound?
A: 20 mg/mL (≈ 23.2 mM)

Q: And the “Solubility in IPA (Isopropyl alcohol)” value ([2]; equilibrated at 27° C. for 24 hours with shaking, listed as 6)?
A: 27 mg/mL (≈ 31.3 mM)

Q: And the “Solubility in Propylene Glycol” value ([2]; propylene glycol, equilibrated at 27° C. for 24 hours with shaking, listed as 6)?
A: 170 mg/mL (≈ 197 mM)

Reference: patent publication US8039601B1, “Crystalline forms of 1,6-Bis [3-(3-carboxymethylphenyl)-4-(2-α-D-mannopyranosyloxy)-phenyl] hexane” (Revotar Biopharmaceuticals AG, priority 2006, dated 2011)
